The values that follow come from US9932621B2, “Modulators for Sirt5 and assays for screening same” (CORNELL UNIVERSITY, priority 2010, dated 2018).

Holding throughout (type): biochemical
For assay [1], the target named is T1, Sirt5 (Homo sapiens, UniProt Q9NXA8).
T1 construct: made in house
T1 sequence (Q9NXA8 37-310): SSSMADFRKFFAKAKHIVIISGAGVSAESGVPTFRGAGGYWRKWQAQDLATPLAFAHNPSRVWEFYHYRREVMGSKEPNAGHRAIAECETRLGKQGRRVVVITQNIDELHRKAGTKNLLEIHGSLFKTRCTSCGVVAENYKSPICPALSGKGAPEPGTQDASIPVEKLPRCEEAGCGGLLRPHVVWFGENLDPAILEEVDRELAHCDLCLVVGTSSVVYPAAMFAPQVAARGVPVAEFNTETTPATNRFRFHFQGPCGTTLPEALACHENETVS
Put plainly: Screening for Sirt5 inhibitors with ISGASE(SuK)-AMC in the fluorogenic assay. To be noted: compound 30 μM, ISGASE(SuK)-AMC 0.3 mM, Sirt5 1 μM, FIG. 13. As for the experimental part: SirT5 (1 μM) was incubated with ISGASE(SuK)-AMC (SEQ ID NO:11) peptide (0.3 mM), NAD (0.5 mM) in Tris-HCl buffer (pH 7.4, 20 mM) with DTT (1 mM) in 60 μL reactions for 4 hours at 37° C. Then trypsin (1 μg) and CaCl2 (1 mM) were added and the reactions were incubated for 3 hours at 37° C. The reactions were the diluted with 50 μL water. The mixture (100 μL) was transferred to 96 well plate and the fluorescence was recorded by BIO-TEK® Synergy HT plate reader (Optics Position: Top, Sensitivity: 50, Excitation at the wavelength of 360 nm and Emission at the wavelength of 460 nm).
The procedure was the same as described above (Assaying Sirt5 activity on ISGASE(SuK)-AMC in the fluorogenic assay), except that different compounds (30 μM) were included in the reactions. In the desuccinylation step, Sirt5 was added last to initiate the desuccinylation reaction.

The target of another assay is T2, Sirt1 (Homo sapiens, UniProt Q96EB6).
T2 sequence (Q96EB6 1-747): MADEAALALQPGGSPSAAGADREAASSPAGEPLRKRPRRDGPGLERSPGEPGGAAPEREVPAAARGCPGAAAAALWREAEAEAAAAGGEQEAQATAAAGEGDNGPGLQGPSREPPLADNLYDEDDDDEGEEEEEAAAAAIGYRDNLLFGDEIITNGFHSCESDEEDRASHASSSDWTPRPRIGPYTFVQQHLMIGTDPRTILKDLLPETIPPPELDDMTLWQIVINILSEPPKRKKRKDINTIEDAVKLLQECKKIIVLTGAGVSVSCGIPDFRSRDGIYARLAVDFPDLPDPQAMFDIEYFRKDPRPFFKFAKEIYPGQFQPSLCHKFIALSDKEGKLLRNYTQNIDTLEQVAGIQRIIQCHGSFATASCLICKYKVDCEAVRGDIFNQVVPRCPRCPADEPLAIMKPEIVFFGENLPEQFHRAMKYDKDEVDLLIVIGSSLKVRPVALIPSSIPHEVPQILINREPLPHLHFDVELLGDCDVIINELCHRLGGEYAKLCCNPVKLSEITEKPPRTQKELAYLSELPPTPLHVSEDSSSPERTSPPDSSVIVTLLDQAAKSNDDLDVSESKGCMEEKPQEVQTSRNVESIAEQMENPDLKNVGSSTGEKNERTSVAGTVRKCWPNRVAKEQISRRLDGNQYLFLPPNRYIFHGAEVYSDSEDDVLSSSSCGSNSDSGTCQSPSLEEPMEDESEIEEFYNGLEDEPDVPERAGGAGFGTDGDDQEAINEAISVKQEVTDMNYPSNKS
Nature of the assay: Sirt1 inhibition IC50. Further details: made in house. The procedure: (§1) All assays were carried out under identical enzyme (1 μM) and substrate (0.3 mM acyl peptide, 0.5 mM NAD) concentrations.

Assay [2] deals with T3, Sirt2 (Homo sapiens, UniProt Q8IXJ6).
T3 construct: made in house
T3 sequence (Q8IXJ6 1-389): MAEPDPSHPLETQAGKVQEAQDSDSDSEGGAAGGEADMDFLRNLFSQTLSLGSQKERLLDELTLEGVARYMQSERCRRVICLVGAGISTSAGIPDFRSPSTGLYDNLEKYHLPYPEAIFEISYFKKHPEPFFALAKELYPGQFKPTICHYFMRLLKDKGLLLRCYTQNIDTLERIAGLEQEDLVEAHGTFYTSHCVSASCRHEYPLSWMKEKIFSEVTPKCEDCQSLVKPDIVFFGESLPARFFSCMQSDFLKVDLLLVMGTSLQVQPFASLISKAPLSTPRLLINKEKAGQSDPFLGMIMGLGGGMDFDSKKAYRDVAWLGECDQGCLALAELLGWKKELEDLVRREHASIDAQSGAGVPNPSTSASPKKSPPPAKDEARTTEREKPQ
Put plainly: Secondary screening using Sirt2 and ISGASE(AcK)-AMC fluorogenic assay. To be noted: inhibitor 30 μM, ISGASE(AcK)-AMC 0.3 mM, Sirt2 1 μM, FIG. 15. The procedure:
SirT2 (1 μM) was incubated with ISGASE(AcK)-AMC (SEQ ID NO:13) peptide (0.3 mM), inhibitors (30 μM), NAD (0.5 mM) in Tris-HCl buffer (pH 7.4, 20 mM) containing dithiothreitol (DTT, 1 mM) in a 60 μL reaction for 4 hours at 37° C. Then trypsin (1 μg) and CaCl2 (1 mM) were added and the reaction were incubated for 3 hours at 37° C. The reactions were diluted with 50 μL water. The mixture (100 μL) was transferred to 96 well plate and the fluorescence was recorded by BIO-TEK® Synergy HT (Optics Position: Top, Sensitivity: 50, Excitation at the wavelength of 360 nm and Emission at the wavelength of 460 nm).

For another assay, the target named is T4, Sirt3 (Homo sapiens, UniProt Q9NTG7).
T4 construct: made in house
T4 sequence (Q9NTG7 1-399): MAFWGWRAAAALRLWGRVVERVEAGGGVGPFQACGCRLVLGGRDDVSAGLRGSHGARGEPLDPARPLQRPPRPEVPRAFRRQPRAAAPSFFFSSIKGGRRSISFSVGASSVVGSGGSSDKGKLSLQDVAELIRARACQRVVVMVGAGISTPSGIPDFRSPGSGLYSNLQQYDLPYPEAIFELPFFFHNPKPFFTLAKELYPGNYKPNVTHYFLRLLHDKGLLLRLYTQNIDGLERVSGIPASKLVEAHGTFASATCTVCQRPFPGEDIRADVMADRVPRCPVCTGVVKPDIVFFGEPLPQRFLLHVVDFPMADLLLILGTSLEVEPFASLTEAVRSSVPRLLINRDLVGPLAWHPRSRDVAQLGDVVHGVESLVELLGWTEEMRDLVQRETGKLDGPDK
Nature of the assay: Sirt3 inhibition IC50. The procedure:
as §1

For assay [3], the target named is T3, Sirt2. Put plainly: Sirt2 inhibition IC50. The procedure:
as §1

For assay [4], the target named is T1, Sirt5. Nature of the assay: Sirt5 inhibition IC50 (desuccinylase, HPLC-based assay). To be noted: Sirt5 1 μM, 0.3 mM acyl peptide, 0.5 mM NAD; * = no inhibition at 100 μM. As for the experimental part:
as §1

A further assay has as its target T5, Sirt5 H158Y (Homo sapiens, UniProt Q9NXA8, H158Y).
T5 sequence (Q9NXA8 37-310 H158Y): T1 sequence (Q9NXA8 37-310) with H122Y
Nature of the assay: Deacylation kinetics by HPLC, mutant Sirt5 H158Y. The following applies: read-out: Km for peptide. The procedure: (§2) For determination of kcat and Km, human Sirt1, Sirt2, Sirt3 and Sirt5 were measured by detecting the deacylated peptide from H3K9 acyl peptides using HPLC. Purified Sirtuin was incubated with 1.0 mM of NAD in 20 mM Tris-HCl buffer (pH 7.5) containing acyl peptides (0-750 μM) and 1 mM DTT in 60 μL reactions at 37° C. The reactions were stopped with 100 mM HCl and 160 mM acetic acid, analyzed by HPLC with a reverse phase C18 column (250×4.6 mm, 90 A, 10 μm, GraceVydac, Southborough, Mass.), with a linear gradient of 0% to 20% B for 10 min (1 mL/min). […] The kcat and Km values were obtained by curve-fitting the Vinitial/[E] versus [S] plot using KaleidaGraph. For Sirt5 R105M, the observed second order rate constant, kobs (rate/([Sirtuin][NAD])) was detected instead of kcat and Km because of the very weak deacylation activity. The experiments were done in duplicate.

The target in the next assay is T6, Sirt5 R105M (Homo sapiens, UniProt Q9NXA8, R105M).
T6 sequence (Q9NXA8 37-310 R105M): T1 sequence (Q9NXA8 37-310) with R69M
Nature of the assay: Deacylation kinetics by HPLC, mutant Sirt5 R105M. To be noted: read-out: Km for peptide. The procedure: For determination of kcat and Km, human Sirt1, Sirt2, Sirt3 and Sirt5 were measured by detecting the deacylated peptide from H3K9 acyl peptides using HPLC. […] The reactions were stopped with 100 mM HCl and 160 mM acetic acid, analyzed by HPLC with a reverse phase C18 column (250×4.6 mm, 90 A, 10 μm, GraceVydac, Southborough, Mass.), with a linear gradient of 0% to 20% B for 10 min (1 mL/min). […] The kcat and Km values were obtained by curve-fitting the Vinitial/[E] versus [S] plot using KaleidaGraph. […] The experiments were done in duplicate.

The target of assay [5] is T1, Sirt5. Nature of the assay: Deacylation kinetics (kcat, Km) by HPLC, Sirt5. The following applies: wild-type Sirt5, Table 3. As for the experimental part:
as §2

In the next assay the target is T7, Sirt5 Y102F (Homo sapiens, UniProt Q9NXA8, Y102F).
T7 sequence (Q9NXA8 37-310 Y102F): T1 sequence (Q9NXA8 37-310) with Y66F
Nature of the assay: Deacylation kinetics by HPLC, mutant Sirt5 Y102F. To be noted: read-out: Km for peptide. As for the experimental part: as §2

For assay [6], the target named is T1, Sirt5. Put plainly: Sirt5 fluorogenic assay with KQTAR(SuK)-AMC. To be noted: reaction with Sirt5. As for the experimental part:
SirT5 (1 μM) was incubated with KQTAR(SuK)-AMC (SEQ ID NO: 10) peptide (0.3 mM), NAD (0.5 mM) in Tris-HCl buffer (pH 7.4, 20 mM) containing dithiothreitol (DTT, 1 mM) in a 60 μL reaction for 16 hours at 37° C. Then trypsin (1 μg) and CaCl2 (1 mM) were added and the reaction were incubated for 14 hours at 37° C. The reactions were diluted with 50 μL water. The mixture (100 μL) was transferred to 96 well plate and the fluorescence was recorded by BIO-TEK® Synergy HT plate reader (Optics Position: Top, Sensitivity: 50, Excitation at the wavelength of 360 nm and Emission at the wavelength of 460 nm).

The target of assay [7] is T1, Sirt5. Nature of the assay: Sirt5-catalyzed desuccinylation of AMC-succinyl peptides monitored by HPLC. As for the experimental part:
[…] The reactions were stopped with 200 mM HCl and 320 mM acetic acid, analyzed by HPLC with a reverse phase C18 column (250×4.6 mm, 90 A, 10 μm, GraceVydac, Southborough, Mass.), with a linear gradient of 0% to 20% B for 10 min (1 mL/min).

Residue numbers refer to the chain shown, from its start. “Also recorded” adds a separate entry of the source. *1 amine or outer side, *2 acyl side, *3 side chain or, on linkers, in order; H or OH if unused. Where no end group is shown, it is not given here. The star is where a group is joined. AMC = Cc1cc(=O)oc2cc(N*)ccc12; Suc = O=C(CCC(=O)[*:2])[*:1]

The IC50 is the concentration needed to halve the response being measured. High values mean lower potency, low ones higher potency. As usually defined, the Km is the concentration of substrate that gives half-maximal velocity. Broadly, the kcat is the maximal rate divided by the concentration of active sites.

In the case of `C[C@H](NC(=O)[C@H](CCCCN)NC(=O)CNC(=O)CNC(=O)[C@@H](NC(=O)[C@H](CO)NC(=O)[C@H](CCCCNC(=S)CCC(=O)O)NC(=O)[C@H](CCCNC(=N)N)NC(=O)[C@H](C)NC(=O)[C@@H](NC(=O)[C@H](CCC(N)=O)NC(=O)[C@@H](N)CCCCN)[C@@H](C)O)[C@@H](C)O)C(=O)O` [H3K9 TSu, KQTAR(TSuK)STGGKA], the “inhibition of Sirt5 (fluorescence) in fluorogenic assay” value on Sirt5 [1] is listed as “close to background level; also recorded: significant inhibition”. Further, the IC50 against Sirt1 (Sirt1 1 μM, 0.3 mM acyl peptide, 0.5 mM NAD, * = no inhibition at 100 μM) was > 100 µM; at Sirt3 (Sirt3 1 μM, 0.3 mM acyl peptide, 0.5 mM NAD, * = no inhibition at 100 μM), > 100 µM; at Sirt2 [3] (Sirt2 1 μM, 0.3 mM acyl peptide, 0.5 mM NAD, * = no inhibition at 100 μM), > 100 µM; on Sirt5 [4] it was 5 µM. Also, on Sirt1 (at 100 μM concentration), the “inhibition of Sirt1” value was “did not inhibit”. Moreover, at Sirt2 [2], the “fluorescence produced by Sirt2 in fluorogenic assay” value is on record as “did not significantly decrease the fluorescence”. Moreover, the “inhibition of Sirt3” value on Sirt3 (at 100 μM concentration) was “did not inhibit”. Besides, the “inhibition of Sirt2” value on Sirt2 [3] (at 100 μM concentration) was “did not inhibit”.
For the compound “H3K9 succinyl peptide: synthesized H3K9 succinyl lysine peptide, Sirt5 substrate (KQTARK(Suc)-{AMC})”, the Km with Sirt5 H158Y was > 750 µM; with Sirt5 R105M, > 750 µM; with Sirt5 [5] (read-out: Km for peptide), 41 ± 11 µM; with Sirt5 Y102F, > 750 µM. Besides, in the assay with Sirt5 [5], the kcat amounted to 0.029 ± 0.002 s⁻¹.
With KQTAR(SuK)-AMC (KQTARK(Suc)-{AMC}), the “fluorescence with Sirt5” value with Sirt5 [6] is recorded as 3600 relative fluorescence unit. In addition, the “hydrolysis by Sirt5” value came to 10% in the assay with Sirt5 [7] (1 μM Sirt5, 3 hrs) and 60% with Sirt5 [7] (5 μM Sirt5, 3 hrs).
